Source: US20230364032A1, “USE OF 2-HOBA TO TREAT ATHEROSCLEROSIS” (Vanderbilt University, priority 2020, published 2023)
Entries after “also recorded” stand apart in the source; their conditions may differ.

How the values were obtained:
IsoLG = experiment: IsoLG-HOBA adducts/metabolites in liver and heart (LC/MS); assay type: in vivo, mouse; conditions: for IsoLG-HOBA adducts in hearts and livers: Ldlr−/− mice after 16 weeks on a western diet
Procedure: To generate an internal standard for quantitation, 10 molar equivalents of the heavy isotope labeled 2-HOBA, [^2H4]2-HOBA, was reacted with synthetic IsoLG^69 overnight in 1 mM triethylammonium acetate buffer to form IsoLG-2-HOBA adducts, and the adducts separated from unreacted [^2H4]2-HOBA and IsoLG by solid phase extraction (Oasis HLB). The isolated reaction products of IsoLG-2-HOBA were scanned by mass spectrometer (Waters Xevo-TQ-Smicro triple quadrupole MS) operating in limited mass scanning mode to identify major products. Additionally, precursor scanning with the product ion set at m/z 111.1 was used to confirm that the detected products were [^2H4]2-HOBA adducts. […] Similar species were seen when IsoLG was reacted with non-labeled 2-HOBA and precursor scanning using product ion m/z 107.1 To identify potential 2-HOBA adducts in tissue of treated animals, the present inventors first generated a list of 18 probable IsoLG-HOBA species [pyrrole, lactam, hydroxylactam based on the in vitro reactions of IsoLG and 2-HOBA and then the anhydro-, dinor-, dinor/anhydro-, tetranor-, and keto-(from oxidation of hydroxyl group) metabolites of each of these three adducts based on previous metabolism studies with prostaglandins and isoprostanes]. The present inventors then analyzed liver homogenate from a 2-HOBA treated mouse using LC/MS with the mass spectrometer operating in positive ion precursor scanning mode and the product ion set to m/z 107.1 and collision energy at 20 eV and looked for the presence of any of these precursor ions. […] M2 m/z 440.3, which mass is consistent with the pyrrole adduct, and M3 m/z 454.3 which mass is consistent with the anhydro-hydroxylactam adduct or the keto-lactam adduct. When then sought to quantify the amount of the putative IsoLG-HOBA adducts in heart and liver samples as there was not sufficient aorta sample remaining from other analysis available to do this analysis.
For these experiments, liver or heart samples from Ldlr^−/− mice treated with 2-HOBA or 4-HOBA were homogenized in 0.5 M Tris buffer solution pH 7.5 containing mixture of antioxidants (pyridoxamine, indomethacin, BHT, TCEP). Total amount of protein in homogenate was determined for normalization. 1 pmol IsoLG-[^2H4]2-HOBA was then added to each homogenate sample as internal standard, the HOBA adducts extracted with ethyl acetate, dried, dissolved in solvent 1 (water with 0.1% acetic acid) and analyzed by LC/MS using Waters Xevo-TQ-Smicro triple quadrupole mass spectrometer operating in positive ion multiple reaction monitoring (MRM) mode, monitoring the following transitions: m/z 438.3→107.1@20 eV for M1; m/z 440→107.1@20 eV for M2; m/z 454→107.1@20 eV for M3; and m/z 476.3→111.1@20 eV for IsoLG-[^2H4]2-HOBA hydroxylactam. Desolvati on temperature: 500° C.; source temperature: 150° C.; capillary voltage: 5 kV, cone voltage: 5 V; cone gas flow 1 L/h; desolvation gas flow 1000 L/h. HPLC condition were as follows: Solvent 1: water with 0.1% acetic acid; Solvent 2, methanol with 0.1% acetic acid; column: Phenomenex Kinetex C8 50×2.1 mm 2.6 u 100 Å, flow rate: 0.4 mL/min; gradient: starting condition 10% B with gradient ramp to 100% B over 3.5 min, hold for 0.5 min, and return to starting conditions over 0.5 min. Abundance for each metabolite was calculated based on the ratio of peak height versus that of internal standard.

MDA-apoAI = experiment: Plasma MDA-apoAI by immunoprecipitation and western blotting; assay type: in vivo, mouse
Procedure: FIGS. 7A-7G show the effects of 2-HOBA on MDA-HDL adducts and HDL function. (7A) The levels or MDA adducts were measured by ELISA in HDL isolated from Ldlr mice treated as described in FIG. 1. Data are presented as mean±SEM (N=8 pet group), *** p<0.001, One-way ANOVA with Bonferroni's post hoc test. (7B) Western blots of apoAl and MDA-apoAl in HDL isolated from plasma by immunoprecipitation using primary anti-apoAl antibody. Ldlf mice were treated as described In FIG. 1 and apoAl and MDA-apoAl from Ldlr mice consuming a chow diet are included f0t comparison. (7C) Quantitation using lmageJ software of the mean density ratio (arbitrary units) of MDA-apoAl to apoAl detected by Western blotting (7B). […]
The study was approved by the Vanderbilt University Institutional Review Board (IRB), and all participants gave their written informed consent. […] After stopping the reaction, the O.D. was measured at 450 nm wavelength. MDA-ApoAI was detected in mouse plasma by immunoprecipitation of ApoAI and western blotting. […] Proteins were visualized and quantitated by Odyssey 3.0 Quantification software (LI-COR).

[1] = Ldlr−/− mice, Western diet 16 weeks, continuously treated, Mean ± SEM

Question: What does the source list for NCc1ccccc1O [2-HOBA, 2-hydroxybenzylamine]?
Answer: IsoLG-HOBA adducts in hearts and livers (IsoLG): present; IsoLG-HOBA-M1 level, heart (IsoLG; [1]): 0.74 ± 0.21 nmol/kg; IsoLG-HOBA-M1 level, liver (IsoLG; [1]): 0.88 ± 0.14 nmol/kg; IsoLG-HOBA-M2 level, heart (IsoLG; [1]): 0.57 ± 0.35 nmol/kg; IsoLG-HOBA-M2 level, liver (IsoLG; [1]): 0.82 ± 0.12 nmol/kg; IsoLG-HOBA-M3 level, heart (IsoLG; [1]): 0.24 ± 0.17 nmol/kg; IsoLG-HOBA-M3 level, liver (IsoLG; [1]): 4.17 ± 1.85 nmol/kg; plasma MDA-apoAI adducts (MDA-apoAI; Ldlr−/− mice consuming a western diet): inhibited; also recorded: dramatically reduced

Question: How did the “IsoLG-HOBA adducts in hearts and livers” value (IsoLG) turn out when NCc1ccc(O)cc1 [4-HOBA, 4-hydroxybenzylamine, reference compound] was run?
Answer: nondetectable

Question: What about the “plasma levels of MDA-apoAI compared to Ldlr−/− mice consuming a chow diet” value (MDA-apoAI; after 16 weeks on the western-type diet) of the same compound?
Answer: markedly increased
